According to patent US20250360149A1, “GPCR INHIBITORS AND USES THEREOF” (GPCR Therapeutics, Inc., priority 2022, published 2025):

Key:
C57BL/6J or Balb/c mice [1] = assay: In vivo mobilization, CBC analysis of WBC (Example 11); settings: for fold increase in WBCs compared to the vehicle: PB 2 h after GPC-100 30 mg/kg IV, 1 h after AMD3100 5 mg/kg SC, 12 h after G-CSF 0.1 mg/kg SC BID x5, propranolol 20 mg/kg IP QD x7
C57BL/6J or Balb/c mice [2] = settings: 5 mg/kg SC, literature; cited from earlier work
[3] = target: CXCR4 and B2AR heteromers (Homo sapiens, UniProt P61073); settings: MDA-MB-231 cells
Sequence of CXCR4 and B2AR heteromers (P61073 whole entry, one chain of several): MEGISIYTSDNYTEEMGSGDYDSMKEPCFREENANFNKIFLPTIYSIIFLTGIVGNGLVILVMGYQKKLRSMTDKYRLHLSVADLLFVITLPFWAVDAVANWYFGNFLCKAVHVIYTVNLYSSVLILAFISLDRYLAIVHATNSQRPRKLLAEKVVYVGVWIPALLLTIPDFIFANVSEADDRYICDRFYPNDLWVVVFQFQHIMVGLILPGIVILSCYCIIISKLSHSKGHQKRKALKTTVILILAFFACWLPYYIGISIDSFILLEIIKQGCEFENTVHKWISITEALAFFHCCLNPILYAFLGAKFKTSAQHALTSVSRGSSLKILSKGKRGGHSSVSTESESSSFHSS

C57/B16 mice = assay: Complete blood count, beta blockers +/- GPC100, single agents and combinations (Examples 6-7); settings: for effect of 7-day beta blocker on GPC100-induced mobilization: GPC100 30 mg/kg IV on day 7
C57/BL6 mice = assay: Complete blood count in peripheral blood, Example 1 mobilization studies; settings: 7-day treatment alone, 20 mg/kg IP
[4] = tested on: LSK cells (Lineage−Sca−1+c−Kit+); assay: Flow cytometry of LSK cells in peripheral blood; settings: mouse, in vivo

For `c1cc(CN2CCCNCCNCCCNCC2)ccc1CN1CCCNCCNCCCNCC1` [AMD3100, Plerixafor], the “changes in platelet count, hemoglobin or other red blood cell parameters” value (C57BL/6J or Balb/c mice [1]; single administration) is given as “No changes”, the “time of peak mobilization” value (C57BL/6J or Balb/c mice [2]) is given as 1 h and the “Inhibition of Ca2+ flux enhanced by co-treatment with Pro (in words)” value [3] is given as “not”.

With `Cc1ccc(OCC(O)C(C)NC(C)C)c2c1CCC2` (centres unmarked) [ICI-118,551] the “effect on total blood cell counts when administered alone” value (C57/B16 mice; seven-day IP, propranolol 20 mg/kg, nadolol 5 mg/kg, ICI-118,551 5 mg/kg) was “did not affect”.

With `CC(C)(C)NCC(O)COc1cccc2c1CC(O)C(O)C2` (centres unmarked) [Nadolol] the “effect of 7-day beta blocker on GPC100-induced mobilization” value (C57/B16 mice) was “enhanced”.

With `CC(C)NCC(O)COc1cccc2ccccc12` (centres unmarked) [Propranolol] the “effect of propranolol pretreatment on GPC-100 induced mobilization” value (C57BL/6J or Balb/c mice [1]; 20 mg/kg IP over 7 days) was “significantly improved”, the “fold increase in WBCs compared to the vehicle” value (C57BL/6J or Balb/c mice [1]) was 4.1 fold and the Hemoglobin (C57/BL6 mice) was 13.15 ± 0.8 g/dL. The Lymphocytes (C57/BL6 mice) was 4.7 ± 1.3 10^3/uL, the Monocytes (C57/BL6 mice) was 0.2 ± 0.09 10^3/uL and the Neutrophils (C57/BL6 mice) was 0.42 ± 0.3 10^3/uL. The Platelets (C57/BL6 mice) was 266 ± 52 10^3/uL, the RBC (C57/BL6 mice) was 9.8 ± 0.36 10^6/uL and the WBC (C57/BL6 mice; vehicle IV on day 7) was 5.4 ± 1.7 10^3/uL. The “effect of 7-day beta blocker on GPC100-induced mobilization” value (C57/B16 mice) was “enhanced”, the “effect on AMD3100-induced mobilization of lymphocytes” value (C57/B16 mice; propranolol 20 mg/kg IP D1-D7, AMD3100 5 mg/kg SC D7) was “slightly increase” and the “effect of propranolol on LSK cell mobilization by GPC-100” value [4] was “enhanced”.

B1: G-CSF: Recombinant murine G-CSF, granulocyte-colony stimulating factor (protein, UniProt P09920 31-208, looked up)
Granulocyte …: VPLVTVSALPPSLPLPRSFLLKSLEQVRKIQASGSVLLEQLCATYKLCHPEELVLLGHSLGIPKASLSGCSSQALQQTQCLSQLHSGLCLYQGLLQALSGISPALAPTLDLLQLDVANFATTIWQQMENLGVAPTVQPTQSAMPAFTSAFQRRAGGVLAISYLQGFLETARLALHHLA
For B1, the “fold increase in WBCs compared to the vehicle” value (C57BL/6J or Balb/c mice [1]) was 4.5 fold, the “WBC mobilization, single agent comparison” value (C57/B16 mice; single agent) was “Maximum mobilization” and the “neutrophil mobilization, single agent comparison” value (C57/B16 mice; single agent) was “more neutrophils than GPC100 or AMD3100”.
